Holding throughout (format): cell-based
For test [1], the target named is T1, human somatostatin receptor subtype 2a (Homo sapiens, UniProt P30874).
T1 construct: expressed in transfected cells
Put plainly: cAMP assay for SSTR2a agonists (HTRF cAMP kit, NKH-477 stimulated). Conditions: CHO cells stably expressing human SSTR2a, 1.6 μM NKH-477. As for the experimental part:
Chinese hamster ovary (CHO) cells stably expressing one of the six human or rodent somatostatin receptor subtypes are grown to 85-100% confluence on standard tissue culture dishes in F12-Ham's growth media (Hyclone) with following additives: 10% donor calf serum (Hyclone), 200 U/mL penicillin (Hyclone), 200 μg/mL streptomycin (Hyclone), 20 mM HEPES (Hyclone), 200 μg/mL hygromycin Hyclone.
General overview: All SSTR subtypes are Gi coupled G-protein coupled receptors (GPCRs) that lead to decreases in intracellular cyclic AMP (cAMP) when activated by an agonist. Therefore, measurement of intracellular cAMP levels can be used to assess whether compounds of the invention are agonists of SSTR subtypes (John Kelly, Troy Stevens, W. Joseph Thompson, and Roland Seifert, Current Protocols in Pharmacology, 2005, 2.2.1-2.2). One example of an intracellular cAMP assay is described below.
Four days prior to the assay, 5000 Chinese hamster ovary (CHO) cells stably expressing the human somatostatin receptor subtype 2a are plated in each well of a 96-well tissue culture plate (Nest Biotech Cell, flat bottom with low evaporation tissue culture treated; Polystyrene; Non-Pyrogenic) in F12-Ham's media (100 μL/well) supplemented with 200 μg/mL of hygromycin. Incubate at 37 C, 5% CO2, 95% humidity for four days. The cells should reach full confluence. On the day of the assay, various dilutions of the compounds of the invention are prepared in assay buffer (HRTF cAMP kit, Cisbio) in the presence of 1.6 μM NKH-477 (a water-soluble forskolin derivative) and 50 μL of the dilutions are added to the cultured cells and incubated for 20 minutes at 37° C. […] 50 μL of lysis buffer (HRTF cAMP kit, Cisbio) is added to each well and incubated at room temperature for 30 minutes, after which 150 μL assay buffer is added to each well. In a 384-well plate (Grenier, 784-080), 10 μL of assay mixture is added to 10 μL of developing mixture, containing cAMP detection and visualization antibodies are added and the assay is allowed incubate for 1-24 hours at room temperature. The intracellular cAMP concentrations are then measured using a commercially available detection kit (for example, the cAMP HTRF kit, Cisbio). The measured intracellular cAMP concentrations are plotted vs. the concentration of the compounds of the invention and the EC50 of the compounds are calculated using standard methods.
Background: Cyclic AMP is a second messenger, typically raised through Gs and lowered through Gi signalling.

Another test has as its target T2, SSTR1 (Homo sapiens, UniProt P30872).
T2 construct: expressed in transfected cells
Put plainly: cAMP functional agonist assay, CHO cells expressing SSTR1. Conditions: CHO cells stably expressing SSTR1, cAMP; read-out: SSTR1 EC50. In a few lines: (§1)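 CHO cells stably expressing the human or rodent somatostatin receptor subtype. Agonism measured as decrease in intracellular cAMP via Gi coupling.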

Another test has as its target SSTR3 (UniProt P32745). The test is described as follows: cAMP functional agonist assay, CHO cells expressing SSTR3. Conditions: CHO cells stably expressing SSTR3, cAMP. Summed up:
(§2)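 CHO cells stably expressing a single somatostatin receptor subtype, grown to 85–100% confluence in F12-Ham's with 10% donor calf serum and hygromycin. Agonism assessed as a decrease in intracellular cAMP via Gi coupling.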

In another test the target is T3, SSTR4 (Homo sapiens, UniProt P31391).
T3 construct: expressed in transfected cells
T3 sequence (P31391 whole entry): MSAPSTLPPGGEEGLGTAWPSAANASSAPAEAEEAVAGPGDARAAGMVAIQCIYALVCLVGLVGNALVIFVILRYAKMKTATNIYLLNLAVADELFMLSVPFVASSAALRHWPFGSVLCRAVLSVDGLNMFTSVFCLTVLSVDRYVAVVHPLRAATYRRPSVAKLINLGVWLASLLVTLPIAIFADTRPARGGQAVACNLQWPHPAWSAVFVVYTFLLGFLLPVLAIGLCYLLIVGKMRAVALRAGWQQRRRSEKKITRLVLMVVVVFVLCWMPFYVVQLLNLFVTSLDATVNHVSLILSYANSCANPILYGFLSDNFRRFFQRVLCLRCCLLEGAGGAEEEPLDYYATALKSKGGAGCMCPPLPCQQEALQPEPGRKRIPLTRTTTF
Put plainly: cAMP functional agonist assay, CHO cells expressing SSTR4. Conditions: CHO cells stably expressing SSTR4, cAMP; read-out: SSTR4 EC50. In a few lines:
as §1

The target in another test is T4, SSTR5 (Homo sapiens, UniProt P35346).
T4 construct: expressed in transfected cells
T4 sequence (P35346 whole entry): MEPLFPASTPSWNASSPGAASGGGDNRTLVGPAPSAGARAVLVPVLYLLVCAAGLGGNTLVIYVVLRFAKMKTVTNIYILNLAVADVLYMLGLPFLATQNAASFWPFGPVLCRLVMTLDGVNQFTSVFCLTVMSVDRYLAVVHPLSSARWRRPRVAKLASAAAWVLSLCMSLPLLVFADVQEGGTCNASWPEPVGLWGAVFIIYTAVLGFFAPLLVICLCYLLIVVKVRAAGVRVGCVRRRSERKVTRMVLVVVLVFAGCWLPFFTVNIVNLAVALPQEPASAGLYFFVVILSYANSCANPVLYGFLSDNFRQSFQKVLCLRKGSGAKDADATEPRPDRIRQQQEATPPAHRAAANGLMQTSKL
Put plainly: cAMP functional agonist assay, CHO cells expressing SSTR5. Conditions: CHO cells stably expressing SSTR5, cAMP. In a few lines:
as §2

The term EC50 denotes the concentration that produces a half-maximal response.

T2 sequence (P30872 whole entry): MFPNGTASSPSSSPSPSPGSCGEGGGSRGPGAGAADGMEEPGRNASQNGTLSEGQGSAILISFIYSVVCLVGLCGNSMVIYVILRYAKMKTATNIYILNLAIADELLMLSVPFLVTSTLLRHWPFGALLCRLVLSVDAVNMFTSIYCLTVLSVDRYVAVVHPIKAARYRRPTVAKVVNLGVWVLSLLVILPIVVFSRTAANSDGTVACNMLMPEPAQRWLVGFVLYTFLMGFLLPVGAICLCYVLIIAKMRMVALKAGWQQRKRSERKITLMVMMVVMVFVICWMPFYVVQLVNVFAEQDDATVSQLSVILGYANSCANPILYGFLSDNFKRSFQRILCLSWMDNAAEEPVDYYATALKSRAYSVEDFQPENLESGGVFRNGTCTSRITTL
Chain of SSTR3 (P32745 whole entry): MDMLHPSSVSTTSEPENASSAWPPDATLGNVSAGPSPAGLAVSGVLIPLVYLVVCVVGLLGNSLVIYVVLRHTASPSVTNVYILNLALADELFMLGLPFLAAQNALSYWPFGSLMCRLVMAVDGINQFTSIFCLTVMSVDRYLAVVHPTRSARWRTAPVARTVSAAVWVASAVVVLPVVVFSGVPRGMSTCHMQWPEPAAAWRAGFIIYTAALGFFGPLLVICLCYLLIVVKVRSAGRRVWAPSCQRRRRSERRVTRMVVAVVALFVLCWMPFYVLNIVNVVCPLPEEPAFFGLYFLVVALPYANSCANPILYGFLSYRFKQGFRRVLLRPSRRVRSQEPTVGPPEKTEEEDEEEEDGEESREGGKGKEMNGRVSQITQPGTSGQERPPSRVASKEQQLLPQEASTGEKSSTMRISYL
T1 sequence (P30874 whole entry): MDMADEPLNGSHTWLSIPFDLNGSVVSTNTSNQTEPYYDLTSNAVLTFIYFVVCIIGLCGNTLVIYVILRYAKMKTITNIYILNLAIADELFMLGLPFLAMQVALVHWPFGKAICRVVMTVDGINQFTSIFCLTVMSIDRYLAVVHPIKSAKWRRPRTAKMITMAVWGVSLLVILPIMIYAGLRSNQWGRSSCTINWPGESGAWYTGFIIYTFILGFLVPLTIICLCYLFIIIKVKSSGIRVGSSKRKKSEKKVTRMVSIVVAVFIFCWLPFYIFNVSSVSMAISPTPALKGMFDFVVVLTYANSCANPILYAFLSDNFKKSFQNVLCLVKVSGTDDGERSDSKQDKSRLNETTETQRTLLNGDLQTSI

In the case of `Cc1cc(C)cc(-c2cnc3ncn(-c4cc(O)cc(F)c4)c(=O)c3c2CN(C)C[C@@H]2CCCCN2)c1` [Compound A-27, 6-(3,5-dimethylphenyl)-3-(3-fluoro-5-hydroxyphenyl)-5-({methyl[(2S)-piperidin-2-ylmethyl]amino}methyl)-3H,4H-pyrido[2,3-d]pyrimidin-4-one], the EC50 in test [1] is less than 100 nM; on SSTR1, 100 to 10000 nM; on SSTR3 it was less than 100 nM; on SSTR4, less than 100 nM; at SSTR5, 100 to 10000 nM.
`CC[C@H](N)CN(C)Cc1c(-c2cc(C)cc(Cl)c2)cnc2ncn(-c3cc(O)cc(C(F)(F)F)c3)c(=O)c12` [Compound A-65, 5-({[(2S)-2-aminobutyl](methyl)amino}methyl)-6-(3-chloro-5-methylphenyl)-3-[3-hydroxy-5-(trifluoromethyl)phenyl]-3H,4H-pyrido[2,3-d]pyrimidin-4-one]: the concentration giving a half-maximal response (EC50) was less than 100 nM in test [1]; 100 to 10000 nM at SSTR1; less than 100 nM at SSTR3; less than 100 nM on SSTR4; 100 to 10000 nM on SSTR5.
As to `CCc1nc2ncc(-c3cc(C)cc(Cl)c3)c(CN(C)C[C@@H]3CCCN3)c2c(=O)n1-c1cccc(O)c1` [Compound A-57, 6-(3-chloro-5-methylphenyl)-2-ethyl-3-(3-hydroxyphenyl)-5-({methyl[(2S)-pyrrolidin-2-ylmethyl]amino}methyl)-3H,4H-pyrido[2,3-d]pyrimidin-4-one], the EC50 was less than 100 nM in test [1]; 100 to 10000 nM on SSTR1; less than 100 nM at SSTR3; less than 100 nM at SSTR4; 100 to 10000 nM on SSTR5.
Turning to `Cc1cc(C)cc(-c2cnc3nc(C)n(-c4cc(O)cc(F)c4)c(=O)c3c2CN(C)C[C@@H]2CCCN2)c1` [Compound A-55, 6-(3,5-dimethylphenyl)-3-(3-fluoro-5-hydroxyphenyl)-2-methyl-5-({methyl[(2S)-pyrrolidin-2-ylmethyl]amino}methyl)-3H,4H-pyrido[2,3-d]pyrimidin-4-one], the EC50 was less than 100 nM in test [1]; more than 10000 nM on SSTR1; 100 to 10000 nM at SSTR3; less than 100 nM at SSTR4; 100 to 10000 nM on SSTR5.
For the molecule `Cc1cc(Cl)cc(-c2cnc3nc(C(C)C)n(-c4cccc(O)c4)c(=O)c3c2CN(C)C[C@@H]2CCCN2)c1` [Compound A-58, 6-(3-chloro-5-methylphenyl)-3-(3-hydroxyphenyl)-5-({methyl[(2S)-pyrrolidin-2-ylmethyl]amino}methyl)-2-(propan-2-yl)-3H,4H-pyrido[2,3-d]pyrimidin-4-one], the 50% effective concentration (EC50) was less than 100 nM in test [1]; 100 to 10000 nM at SSTR1; 100 to 10000 nM at SSTR3; less than 100 nM at SSTR4; 100 to 10000 nM on SSTR5.
On to `Cc1cc(Cl)cc(-c2cnc3ncn(-c4cc(O)cc(C(F)(F)F)c4)c(=O)c3c2CN(C)C[C@@H]2CCCN2)c1` [Compound A-48, 6-(3-chloro-5-methylphenyl)-3-[3-hydroxy-5-(trifluoromethyl)phenyl]-5-({methyl[(2S)-pyrrolidin-2-ylmethyl]amino}methyl)-3H,4H-pyrido[2,3-d]pyrimidin-4-one], for which the EC50 is less than 100 nM in test [1]; 100 to 10000 nM on SSTR1; less than 100 nM on SSTR3; less than 100 nM on SSTR4; more than 10000 nM on SSTR5.
Regarding “5-({[(2S)-2-aminobutyl](methyl)amino}methyl)-6-(3,5-dimethylphenyl)-3-[3-hydroxy-5-(trifluoromethyl)phenyl]-3H,4H-pyrido[2,3-d]pyrimidin-4-one [Compound A-63]”, the concentration for a half-maximal effect (EC50) was less than 100 nM in test [1]; 100 to 10000 nM on SSTR1; less than 100 nM on SSTR3; less than 100 nM on SSTR4; more than 10000 nM on SSTR5.
As to `Cc1cccc(-c2cnc3ncn(-c4cccc(O)c4)c(=O)c3c2CN(C)CC2CCCCN2)c1` (stereo not shown) [Compound A-21, 3-(3-hydroxyphenyl)-5-{[methyl(piperidin-2-ylmethyl)amino]methyl}-6-(3-methylphenyl)-3H,4H-pyrido[2,3-d]pyrimidin-4-one], the EC50 in test [1] was less than 100 nM; at SSTR1, 100 to 10000 nM; at SSTR3, less than 100 nM; on SSTR4 it was less than 100 nM; at SSTR5 it was more than 10000 nM.
As for `CC[C@H](N)CN(C)Cc1c(-c2cc(C)cc(C)c2)cnc2ncn(-c3cc(O)cc(F)c3)c(=O)c12` [Compound A-62, 5-({[(2S)-2-aminobutyl](methyl)amino}methyl)-6-(3,5-dimethylphenyl)-3-(3-fluoro-5-hydroxyphenyl)-3H,4H-pyrido[2,3-d]pyrimidin-4-one], the EC50 was less than 100 nM in test [1]; 100 to 10000 nM at SSTR1; less than 100 nM on SSTR3; less than 100 nM on SSTR4; 100 to 10000 nM at SSTR5.
With `Cc1cc(Cl)cc(-c2cnc3ncn(-c4cc(O)cc(Cl)c4)c(=O)c3c2CN(C)C[C@@H]2CCCN2)c1` [Compound A-49, 3-(3-chloro-5-hydroxyphenyl)-6-(3-chloro-5-methylphenyl)-5-({methyl[(2S)-pyrrolidin-2-ylmethyl]amino}methyl)-3H,4H-pyrido[2,3-d]pyrimidin-4-one], the EC50 was less than 100 nM in test [1]; 100 to 10000 nM on SSTR1; less than 100 nM at SSTR3; less than 100 nM on SSTR4; more than 10000 nM at SSTR5.
As for `CN(Cc1c(-c2cccc(CCO)c2)cnc2ncn(-c3cccc(O)c3)c(=O)c12)C[C@@H]1CCCN1` [Compound A-32, 6-[3-(2-hydroxyethyl)phenyl]-3-(3-hydroxyphenyl)-5-({methyl[(2S)-pyrrolidin-2-ylmethyl]amino}methyl)-3H,4H-pyrido[2,3-d]pyrimidin-4-one], the EC50 is less than 100 nM in test [1]; more than 10000 nM at SSTR1; 100 to 10000 nM at SSTR3; less than 100 nM at SSTR4; more than 10000 nM at SSTR5.
Turning to `Cc1cc(Cl)cc(-c2cnc3ncn(-c4cc(F)cc(C(N)=O)c4)c(=O)c3c2CN(C)C[C@H]2CCCN2)c1` [Compound A-51, 3-[6-(3-chloro-5-methylphenyl)-5-({methyl[(2R)-pyrrolidin-2-ylmethyl]amino}methyl)-4-oxo-3H,4H-pyrido[2,3-d]pyrimidin-3-yl]-5-fluorobenzamide], the concentration giving a half-maximal response (EC50) was less than 100 nM in test [1]; more than 10000 nM at SSTR1; less than 100 nM at SSTR3; less than 100 nM on SSTR4; more than 10000 nM on SSTR5.
Turning to `CN(Cc1c(-c2cccc(CO)c2)cnc2ncn(-c3cccc(O)c3)c(=O)c12)C[C@@H]1CCCN1` [Compound A-34, 6-[3-(hydroxymethyl)phenyl]-3-(3-hydroxyphenyl)-5-({methyl[(2S)-pyrrolidin-2-ylmethyl]amino}methyl)-3H,4H-pyrido[2,3-d]pyrimidin-4-one], the EC50 in test [1] is less than 100 nM; at SSTR1, more than 10000 nM; on SSTR3 it was 100 to 10000 nM; on SSTR4, less than 100 nM; at SSTR5, more than 10000 nM.
As for `Cc1cc(Cl)cc(-c2cnc3ncn(-c4cc(O)cc(F)c4)c(=O)c3c2CN(C)C[C@@H]2CCCCN2)c1` [Compound A-28, 6-(3-chloro-5-methylphenyl)-3-(3-fluoro-5-hydroxyphenyl)-5-({methyl[(2S)-piperidin-2-ylmethyl]amino}methyl)-3H,4H-pyrido[2,3-d]pyrimidin-4-one], the EC50 is less than 100 nM in test [1]; 100 to 10000 nM on SSTR1; less than 100 nM on SSTR3; less than 100 nM at SSTR4; 100 to 10000 nM on SSTR5.

(Values after patent publication US9957267B2, “Somatostatin modulators and uses thereof” (Crinetics Pharmaceuticals, Inc., priority 2015, dated 2018).)
